Measurements from patent publication US20080194531A1, “Methods for Treating Visual Disorders” (priority 2005, published 2008).
Entries after “also recorded” stand apart in the source; their conditions may differ.

How the values were obtained:
[1] = test system: Huntington's disease animal models; conditions: animal models of Huntington's disease; cited from earlier work
apoptosis = conditions: in vitro and in vivo; blocking classic pathways, induction of survival pathways; cited from earlier work
[2] = test system: neurologic injury after acute ischemic or hemorrhagic stroke; conditions: cited from earlier work
[3] = Animal weight recordings in TUDCA-treated P23H rats; assay type: in vivo, rat; conditions: p<0.05, TUDCA 100-200 mg/kg/d subcutaneous, suggests systemic toxicity
Description: (§1) Preliminary Study: Homozygous line 1 and line 3 P23H rats (very strong model of rapid retinal degeneration, especially in the homozygous state), were given 100-200 mg/kg/d of TUDCA via subcutaneous injections while control animals will be given placebo vehicle only. Animals were sacrificed at intervals that correspond to the known retinal degenerations. Eyes were enucleated and the neurosensory retina was examined for signs of neuroprotection by counting the cell nuclei in the various retinal layers (FIG. 1; study design). For each animal studied, 14 sections were taken for each eye with 30-50 separate measurements performed and averaged for each section. Counting the average number of outer nuclear layer (ONL) cells was used to determine the level of retinal injury or loss.

[4] = test system: inherited retinal degeneration (rds mouse); conditions: preliminary work; cited from earlier work
Parkinsonian rats = conditions: cited from earlier work
[5] = test system: neurosensory retinal degeneration (P23H rat); test: Outer nuclear layer (ONL) cell counting / retinal histopathology in homozygous P23H rats given TUDCA subcutaneously; assay type: in vivo
Text: We have studied the use of bile acids (tauroursodeoxycholic acid, TUDCA) for inhibition of neurosensory retinal degeneration in an animal model of retinal degeneration (P23H rat).
Animal Studies: The P23H rat model of inherited retinal degeneration is an animal model of a common mutation found in >10% of autosomal dominantly inherited retinitis pigmentosa in humans. This animal model has been studied in the laboratory of Dr. Olsen at the University of Minnesota. The mechanism of retinal degeneration is mediated by apoptosis, but may follow a separate pathway than that of the rds mouse. The P23H rat model represents a protein conformational disorder that leads to retinal degeneration. Other examples of protein conformation disorders include Huntington's and Parkinson's disease.
as §1

## C[C@H](CCC(=O)NCCS(=O)(=O)O)[C@H]1CC[C@H]2[C@@H]3[C@@H](O)C[C@@H]4C[C@H](O)CC[C@]4(C)[C@H]3CC[C@]12C [TUDCA, tauroursodeoxycholic acid]
[1]
  neuroprotection: neuroprotective
apoptosis
  interruption of apoptosis: will interrupt apoptosis
[2]
  protection against neurologic injury: protect against neurologic injury
[3]; P23H rat line 1, by day 37 and beyond
  animal weight, treated vs controls: significant weight loss
[3]; P23H rat line 3, by day 37 and beyond
  animal weight, treated vs controls: significant weight loss
[4]
  electroretinographic response (functional test of vision): preservation of visual function
  protection of the inner nuclear layer of the retina: dramatic protection of the inner nuclear layer of the retina
Parkinsonian rats
  graft survival: improved graft survival
[5]; homozygous P23H rat line 1, week 12, TUDCA 100-200 mg/kg/d subcutaneous, FIG. 2
  thickness of the ONL in histopathologic images, drug treated vs vehicle: visible difference in the thickness of the drug treated ONL as compared to the vehicle
[5]; homozygous P23H rat line 1, weeks 7, 10 and 12, TUDCA 100-200 mg/kg/d subcutaneous, FIG. 3
  average number of ONL cells, TUDCA vs vehicle controls: no statistically significant differences; also recorded: no statistically significant protective effect
[5]; homozygous P23H rat line 3, 9 week post-natal time point, p=0.16 (not statistically significant), TUDCA 100-200 mg/kg/d subcutaneous, FIG. 4
  rate of retinal degeneration by counting the ONL layer thickness: trend toward a protective effect
[5]; homozygous P23H rat line 3, TUDCA 100-200 mg/kg/d subcutaneous, FIG. 2
  thickness of the ONL in histopathologic images, drug treated vs control: less noticeable difference between the drug treated and the control
